Like-named read-outs stand apart in the source and are kept apart here.
How the values were obtained:
COVID-19 (SARS-CoV2) = assay: Example I, intravenous citrulline treatment of hospitalized Covid-19 patients; type: in vivo; settings: intravenous bolus 20 mg/kg then 9 mg/kg per hour infusion up to 10 days
Experimental: Subjects hospitalized and requiring oxygen for an acute hypoxemic respiratory illness due to COVID-19 (SARS-CoV2) will be treated. In addition, subjects will receive standard supportive care for acute hypoxemic respiratory illness and failure. The assessment of efficacy will include collection of plasma for analysis of citrulline and arginine levels at 2 hours, 12 hours, and the alternating morning of study days. Optionally, samples may also be analyzed for D-dimer and angiopoietin-2 levels.
The assessment of efficacy will include collection of plasma for analysis of citrulline and arginine levels at 2 hours, 12 hours, and the alternating morning of hospitalization days. Additional efficacy measures will include clinical outcomes, including progression of acute lung injury and, lengths of hospital and ICU stay. The assessment of safety will include collection of hemodynamic measurements at least every 4 hours on a hospital unit.
Patients will receive an initial intravenous bolus of 20 mg/kg (to a maximum of 1500 mg) L-citrulline over 10 minutes. The infusion solution will be prepared as a 5% isotonic solution (50 mg/mL) in 5% dextrose water. […]
Participant survival will be assessed at hospital discharge. […] Hospital length of stay will be calculated as the number of days from admission to hospital discharge.

[1] = human, in vivo; cited from earlier work
[2] = Phase IB trial of intravenous L-citrulline versus placebo in children undergoing cardiopulmonary bypass (IND #66,261); type: in vivo
Description: FIG. 1. Duration of mechanical ventilation therapy following cardiopulmonary bypass in citrulline treated and control patients.
FIG. 2. Duration of inotrope therapy following cardiopulmonary bypass in citrulline treated and control patients.
FIG. 3. Maximum of mechanical ventilation or inotrope therapy (surrogate for duration of ICU stay) following cardiopulmonary bypass in citrulline treated and control patients.
A recent study^39 carried out under IND #66,261 examined whether maintenance of plasma citrulline levels at steady state levels at or above 100 micromolar would prevent the occurrence of pulmonary complications of cardiopulmonary bypass in children undergoing congenital heart repair surgery. For pulmonary function, the endpoint was the post-operative duration of mechanical ventilation (see FIG. 1). Alternative endpoints included the duration of post-operative inotrope therapy (see FIG. 2) and the length of time in the intensive care unit (see FIG. 3).

[3] = cited from earlier work
[4] = in vivo, iv
[5] = in vivo; cited from earlier work
[6] = plasma citrulline 12 h postoperatively <37 μmol/L

NC(=O)NCCC[C@H](N)C(=O)O [citrulline, L-citrulline]
Length of time to an intubation event from the start of study infusion (COVID-19 (SARS-CoV2)): extend the length of time to an intubation event | Total length of all mechanical ventilation, including non-invasive modalities (COVID-19 (SARS-CoV2)): reduce the total length of all mechanical ventilation | Adverse effects [1]: no observed adverse effects | Duration of mechanical ventilation therapy following cardiopulmonary bypass ([2]; citrulline treated vs control patients, Wilcoxon rank-sum p=0.0089, plasma citrulline at or above 100 micromolar): treated differs from control | Duration of inotrope therapy following cardiopulmonary bypass ([2]; citrulline treated vs control patients, Wilcoxon rank-sum p=0.0351): treated differs from control | Maximum of mechanical ventilation or inotrope therapy (surrogate for duration of ICU stay) following cardiopulmonary bypass ([2]; citrulline treated vs control patients, Wilcoxon rank-sum p=0.0479): treated differs from control | Complications of cardiopulmonary bypass ([2]; plasma citrulline maintained at or above 100 micromolar, by time on mechanical ventilation and duration of inotrope therapy): prevented the complications of bypass | Pulmonary hypertension absent (number of patients) [3, 6]: 18 | Pulmonary hypertension present (number of patients) [3, 6]: 9 | Pulmonary hypertension present (number of patients) ([3]; plasma citrulline 12 h postoperatively >37 μmol/L, P value .036): *0 | Pulmonary hypertension absent (number of patients) ([3]; plasma citrulline 12 h postoperatively >37 μmol/L): 12 | Drug-associated adverse events [4]: no drug-associated adverse events | half-life of citrulline in plasma [5]: about 1 hour
